From patent US20070014721A1, “Hydrazide conjugates as imaging agents” (priority 2005, published 2007)
Read-outs that look alike come from different tables or passages of the source. *1 amine or outer side, *2 acyl side, *3 side chain or, on linkers, in order; H or OH if unused. Where a SMILES comes first, the peptide text is derived from it. [ ]: non-standard residue; d: D form. The star is where a group is joined. PABC = O=C(OCc1ccc(N[*:1])cc1)[*:2]; X1 = CC(=O)NCCCCCC(=O)NN*; Boc = CC(C)(C)OC(=O)*; Nlys = NCCCCNCC(=O)O

How the values were obtained:
[1] = system: aorta of apolipoprotein E (apoE) knockout mouse; assay: In vivo ApoE mouse aorta uptake study; conditions: 60 min postinjection; for Aorta (% ID/g): ApoE mouse on high-fat diet 37-41 weeks, tail vein bolus; for Aorta/Blood Ratio: ApoE mouse, calculated from the % ID/g data
Procedure: (§1) Mice were fed a high-fat diet to accelerate plaque formation and compounds were tested in the mice between 37-41 weeks on diet. Test compounds were radiolabeled (^14C, ^99mTc, or ^111In as described above) and administered at 0.02-4.0 mCi/kg to anesthetized mice in a single, bolus injection via the tail vein. Blood samples were collected via the tail between 0-30 minutes postinjection for pharmacokinetic analysis and mice were euthanized by CO2 at 60 minutes for tissue harvesting. The aorta were flushed with saline through the left ventricle exiting via the femoral vein. The aorta were then removed from the heart to the renal bifurcation and additional tissue samples collected (blood, muscle, liver, kidney, heart, lung, spleen and innominate artery). All samples were weighed and assayed for radioactivity. Tissue uptake is expressed as percent of injected dose per gram of tissue (% ID/g). The aorta to blood ratios were calculated from the % ID/g data.

[2] = system: aorta of atherosclerotic rabbit model; assay: In vivo rabbit aorta uptake study, atherosclerotic (plaque) rabbit; conditions: 60 minutes postinjection; for Aorta/Blood (Plaque Rabbit): calculated from the % ID/g data; for Aorta Uptake, % ID/g (Plaque Rabbit): marginal ear vein bolus
Procedure: (§2) Atherosclerosis was induced in New Zealand White male rabbits (3 kg) with aortic balloon endothelial injury followed by feeding a 0.5% cholesterol diet for 22 weeks. Test compounds were radiolabeled(^14C, ^99mTc, or ^111In as described above) and administered at 0.02-1.0 mCi/kg to anesthetized rabbits in a single, bolus injection vis the marginal ear vein. Blood samples were collected from the central ear artery at 0, 2, 5, 7, 10, 15, 30, and 60 minutes post injection. Rabbits were euthanized at 60 minutes post injection for tissue harvesting (blood, muscle, bile, urine, kidney, liver, spleen, heart, lung, colon, small intestine, stomach, testes). Abdominal aorta (upper, middle, and lower) and left and right femoral arteries were collected. Both plaque bearing and non-plaque bearing rabbits were administered compounds to compare aorta uptake. All samples were weighed and assayed for radioactivity. Tissue uptake is expressed as percent of injected dose per gram of tissue (% ID/g). The aorta to blood ratios were calculated from the % ID/g data.

[3] = system: Rabbit plaque aorta or normal rabbit aorta; assay: Ex vivo blood vessel binding assay; parameters: species or system New Zealand white rabbits; conditions: radiolabeled compound incubated with rabbit aorta (0.5 cm) in phosphate buffered saline for 2 hours at 37° C; bound compound as percentage of the incubated compound
Excerpt: Normal aorta was obtained from New Zealand white rabbits. Aorta bearing atherosclerotic plaque was obtained from New Zealand white rabbits balloon stripped along the abdominal aorta and placed on a high fat diet (0.5% cholesterol) for 16-22 weeks. Vascular injury was produced with a 3-F Fogarty catheter along the abdominal aorta and left iliofemoral artery. This procedure generates an accelerated complex lesion development with a lipid rich core covered by a fibrous cap in rabbits. Rabbit plaque aorta or normal rabbit aorta (0.5 cm) was incubated with 10 nCi of ^14C labeled compound or 1.5 μCi of ^99m Tc labeled compound or 0.135 μCi of ^111In labeled compound or 0.135 μCi of ^68Ga labeled compound or 0.135 µCi of ^153Gd labeled compound diluted in phosphate buffered saline (450 μL) for 2 hours at 37° C. The supernatant from this sample was collected and analyzed by HPLC to determine compound stability in presence of blood vessels. The blood vessel tissue was then washed with phosphate buffered saline (3×10 mL). Phosphate buffered saline (10 ml) was added to the tissue and incubated at 37° C. for 1 hour. The tissue was then washed with phosphate buffered saline (3×10 mL). The washed tissue was oxidized in a tissue oxidizer for C-14 labeled compounds. The counts in the oxidized tissue were determined on a beta counter. Blood vessels incubated with ^99m Tc labeled compound or ^111In labeled compound or ^68Ga labeled compound or ^153Gd labeled compound were counted on a gamma counter. The amount of compound bound to the tissue was determined as a percentage of the incubated compound. This was calculated using the following formula: [formula]

Aminopeptidase N = Aminopeptidase N (Homo sapiens, UniProt P15144); assay: Aminopeptidase N cleavage of test substrates; assay type: biochemical; conditions: Boc removed from N-terminus before assay; 0.5 mM test substrate, 0.02 U APN, 37° C, 25 minutes
Procedure: The test compounds were dissolved in 50:50 TFA:dichloromethane and allowed to stand at ambient temperature under nitrogen for 10 minutes to remove the Boc protecting group from the N-terminus amino acid. The solutions were concentrated and the resulting oily residue was dissolved in 50:50 acetonitrile:water and lyophilized. The resulting flocculent solids were used directly in the APN assay.
Aminopeptidase N cleaves amino acids at the N-terminus of proteins and peptides attached to another amino acid. A stock solution of test substrates was prepared in 100% DMSO at a concentration of 8 mM. The stock solution (4.7 μL) was added to buffer (50 mM Hepes/pH 7.5, 10 mM CaCl2, 0.1% Brij) for a final concentration of 0.5 mM test substrate in the reaction. To this reaction solution 0.02 U of the enzyme (APN) was added, the solution was mixed, and immediately 30 μL of the mix was transferred to HPLC vials containing acetic acid (15 μL) for t=0 minutes measurement. The rest of the mix in the test tube was incubated at 37° C. for 25 minutes. At the 25 minutes time point 30 μL of the mix was transferred to an HPLC vial containing acetic acid (15 μl) for the t=25 minute measurement. The test substrates and products were separated by reversed phase HPLC on a Zorbax SB-C18 column (4.6×150 mm, 5 micron) using a water:acetonitrile gradient containing 0.1% TFA at a flow rate of 1.0 mL/min and with UV detection. The peak areas were integrated and the substrate peak area was used to determine rate constant k in the following equation: K={(% hydrolyzed/100)*[S]}/[E]*[time] where S=test substrate concentration in μmoles
E=aminopeptidase N concentration in units/ml
K=μmoles of substrate hydrolyzed/minute/unit enzyme

[4] = system: aorta of atherosclerotic rabbit model; conditions: in vivo
Procedure: as §2

[5] = system: aorta of apolipoprotein E (apoE) knockout mouse; conditions: in vivo
Procedure: as §1

[6] = system: aorta of normal (non-plaque bearing) rabbit; assay: In vivo rabbit aorta uptake study, normal rabbit; parameters: species or system New Zealand White male rabbits; conditions: 60 minutes postinjection; for Aorta/Blood (Normal Rabbit): calculated from the % ID/g data; for Aorta Uptake, % ID/g (Normal Rabbit): marginal ear vein bolus
Excerpt: All samples were weighed and assayed for radioactivity.

Sequence of Aminopeptidase N (P15144 whole entry, species assumed): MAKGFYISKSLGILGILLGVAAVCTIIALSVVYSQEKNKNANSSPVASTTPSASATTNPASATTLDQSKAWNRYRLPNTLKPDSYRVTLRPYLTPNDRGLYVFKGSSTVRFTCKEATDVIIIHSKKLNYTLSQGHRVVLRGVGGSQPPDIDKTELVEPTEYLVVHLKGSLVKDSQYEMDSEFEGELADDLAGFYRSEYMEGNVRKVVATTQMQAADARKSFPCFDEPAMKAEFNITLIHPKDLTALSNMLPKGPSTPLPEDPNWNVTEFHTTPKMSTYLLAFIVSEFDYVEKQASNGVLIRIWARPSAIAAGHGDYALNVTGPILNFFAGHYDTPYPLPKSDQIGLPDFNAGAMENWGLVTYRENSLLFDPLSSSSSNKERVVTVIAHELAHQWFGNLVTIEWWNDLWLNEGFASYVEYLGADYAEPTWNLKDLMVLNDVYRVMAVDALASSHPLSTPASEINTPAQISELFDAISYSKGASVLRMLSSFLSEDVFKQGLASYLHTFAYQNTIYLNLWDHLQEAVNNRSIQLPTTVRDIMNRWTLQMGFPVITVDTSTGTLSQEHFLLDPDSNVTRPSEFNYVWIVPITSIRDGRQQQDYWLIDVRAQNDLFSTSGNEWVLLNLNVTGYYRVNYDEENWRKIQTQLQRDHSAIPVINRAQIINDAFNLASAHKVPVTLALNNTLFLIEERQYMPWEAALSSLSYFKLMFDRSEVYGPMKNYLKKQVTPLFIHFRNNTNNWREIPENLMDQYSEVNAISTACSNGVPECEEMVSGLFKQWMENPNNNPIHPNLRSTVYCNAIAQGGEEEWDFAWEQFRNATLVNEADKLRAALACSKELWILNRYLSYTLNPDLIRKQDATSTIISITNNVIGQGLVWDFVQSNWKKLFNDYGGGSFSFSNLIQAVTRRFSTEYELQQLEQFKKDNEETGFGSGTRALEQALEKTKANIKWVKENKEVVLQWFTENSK

Row | Compound | Aorta (% ID/g) [1] | Aorta/Blood Ratio [1] | Aorta/Blood (Plaque Rabbit) [2] | Aorta Uptake, % ID/g (Plaque Rabbit) [2] | Tissue Binding % [3] | Rate of APN Hydrolysis of Test Substrates (Aminopeptidase N) | Aorta/Blood (Plaque Rabbit) [4] | Aorta/Blood Ratio [5] | Aorta/Blood (Normal Rabbit) [6] | Aorta Uptake, % ID/g (Normal Rabbit) [6]
1 | Boc-d-Leu-Inph-H [Example 139] | 17.2 % ID/g | 5.0 | 2.92 | 0.096 % ID/g | 18.36% | – | – | – | – | –
2 | H-d-Phe-Apah-DTPA [Example 164] | 8.2 % ID/g | 7.5 | 3.56 | 0.085 % ID/g | 13.88% | – | – | – | – | –
3 | CC(C)C[C@H](NC(=O)OC(C)(C)C)C(=O)N[C@H](CC(C)C)C(=O)NNC(=O)CCCCCN.O=C(O)C(F)(F)F [Example 80, N-((2R)-2-{(2S)-2-[(tert-Butoxy)carbonylamino]-4-methylpentanoylamino}-4-methylpentanoylamino)-6-aminohexanamide, Trifluoroacetic Acid Salt] | – | – | – | – | – | 0.00 μmoles/minute/U | – | – | – | –
4 | H-d-Leu-Ahxh-Apa-DOTA [Example 215] | – | – | 1.31 | 0.092 % ID/g | 11.54% | – | – | – | – | –
5 | H-d-Leu-Apah-DTPA [Example 159] | 9.5 % ID/g | 3.0 | 4.08 | 0.083 % ID/g | 10.10% | – | – | – | – | –
6 | CC(=O)NCCCCCC(=O)NNC(=O)[C@@H](CC(C)C)NC(=O)OCc1ccc(NC(=O)[C@H](CC(C)C)NC(=O)[C@H](CC(C)C)NC(=O)CN(CCCCNC(=O)OC(C)(C)C)C(=O)[C@H](CC(C)C)NC(=O)[C@@H]2CCCN2C(C)=O)cc1 [Example 128, Ac-PL-NLys(Boc)˜LL-PABA-CO-d-Leu-Ahxh-H] (Ac-PL[Nlys](Boc)LL[PABC][dL]-X1) | – | – | – | – | 5.77% | – | 1.93 | 2.3 | – | –
7 | H-d-Leu-Apah-Ahx-DTPA [Example 176] | 12.2 % ID/g | 13.3 | – | – | 25.21% | – | – | – | 4.95 | 0.123 % ID/g
8 | CC(C)C[C@H](NC(=O)OC(C)(C)C)C(=O)Nc1ccc(C[C@@H](NC(=O)OC(C)(C)C)C(=O)NNC(=O)CCCCCN)cc1.O=CO [Example 83, N-[(2R)-3-(4-{(2S)-2-[(tert-Butoxy)carbonylamino]-4-methylpentanoylamino}phenyl)-2-[(tert-butoxy)carbonylamino]propanoylamino]-6-aminohexanamide, Formic Acid Salt] | – | – | – | – | – | 0.43 μmoles/minute/U | – | – | – | –
9 | H-d-Leu-Ahxh-DOTA [Example 155] | 5.1 % ID/g | 2.0 | 1.67 | 0.080 % ID/g | 3.49% | – | – | – | 2.21 | 0.065 % ID/g
10 | H-d-1-Nal-Ambh-DTPA [Example 183] | 15.7 % ID/g | 11.7 | – | – | 24.41% | – | – | – | 4.72 | 0.146 % ID/g
11 | H-d-Hphe-Ambh-DTPA [Example 203] | 12.9 % ID/g | 8.7 | 2.76 | 0.127 % ID/g | 17.96% | – | – | – | 4.78 | 0.129 % ID/g
12 | H-d-Leu-Apph-DTPA [Example 171] | 6.7 % ID/g | 8.8 | 2.89 | 0.168 % ID/g | 16.56% | – | – | – | 4.49 | 0.143 % ID/g
13 | H-d-Phe-Apph-DTPA [Example 174] | 8.7 % ID/g | 11.0 | – | – | 17.15% | – | – | – | 5.42 | 0.111 % ID/g
14 | CC(C)C[C@H](NC(=O)OC(C)(C)C)C(=O)Nc1ccc(COC(=O)N[C@H](CC(C)C)C(=O)NNC(=O)CCCCCN)cc1.O=C(O)C(F)(F)F [Example 13, N-((2R)-2-{[(4-{(2S)-2-[(tert-Butoxy)carbonylamino]-4-methylpentanoylamino}phenyl)methoxy]carbonylamino}-4-methylpentanoylamino)-6-aminohexanamide, Trifluoroacetic Acid Salt] | – | – | – | – | – | 0.33 μmoles/minute/U | – | – | – | –
15 | H-d-Trp-Ambh-DTPA [Example 208] | 14.8 % ID/g | 8.7 | – | – | 14.91% | – | – | – | 5.58 | 0.135 % ID/g
16 | H-d-Bip-NHNH-DTPA [Example 162] | 7.1 % ID/g | 4.7 | – | – | 6.39% | – | – | – | – | –
17 | CC(C)C[C@@H](NC(=O)OC(C)(C)C)C(=O)NCC(=O)NCCCCN [Example 140, Boc-d-Leu-Gly-NH-Butyl-NH2] | 1.3 % ID/g | 0.8 | – | – | 0.52% | – | – | – | – | –
18 | H-d-Phe-Apph-Ahx-DTPA [Example 182] | 11.0 % ID/g | 4.5 | – | – | 12.02% | – | – | – | – | –
19 | Boc-d-Phe[p-(Ac-PL-NLys(Boc)˜Hphe-L-NH)]-Ahxh-H [Example 147] | – | – | – | – | 44.73% | – | 9.05 | 8.8 | – | –
20 | H-d-Val-Ahxh-DTPA [Example 191] | 5.3 % ID/g | 1.5 | – | – | 3.02% | – | – | – | – | –
21 | H-d-Aphe-Ahxh-DTPA [Example 193] | 6.2 % ID/g | 3.0 | – | – | 8.69% | – | – | – | – | –
22 | Boc-d-Leu-Ahxh-H [Example 120] | 8.9 % ID/g | 2.2 | 3.98 | 0.088 % ID/g | 14.09% | – | – | – | – | –
23 | [H-d-Cys(Bzl)-Apph]2EDTA[APEEPA-DTPA]2 [Example 186] | 7.0 % ID/g | 1.5 | – | – | 7.78% | – | – | – | – | –
24 | H-d-2-Nal-Ambh-DTPA [Example 212] | 12.6 % ID/g | 10.8 | – | – | 18.78% | – | – | – | – | –
25 | H-d-Tic-Apah-DTPA [Example 178] | 8.3 % ID/g | 4.2 | – | – | 6.00% | – | – | – | – | –
26 | H-d-Cha-Apah-DTPA [Example 170] | 7.0 % ID/g | 5.4 | – | – | 7.55% | – | – | – | – | –
27 | H-d-Phe-XInph-DTPA [Example 202] | 4.3 % ID/g | 4.0 | – | – | 5.44% | – | – | – | – | –
28 | Boc-d-Leu-N(Me)-NH-Ahx-NH2 [Example 126] | 1.3 % ID/g | 0.6 | – | – | 2.97% | – | – | – | – | –
